22 compounds from patent US20250361230A1, “LATS Inhibitors and Uses Thereof” (The USA, as Represented by the Secretary, Dept. of Heath …, priority 2022, published 2025) can be followed below.

pIC50: −log10 of the molar value.

The pIC50 is the IC50 on a negative log10 scale, so that one unit is a factor of ten.

What all share (assay type): biochemical
The target of one assay is T1, LATS1 (Homo sapiens, UniProt O95835).
T1 sequence (O95835 1-1130): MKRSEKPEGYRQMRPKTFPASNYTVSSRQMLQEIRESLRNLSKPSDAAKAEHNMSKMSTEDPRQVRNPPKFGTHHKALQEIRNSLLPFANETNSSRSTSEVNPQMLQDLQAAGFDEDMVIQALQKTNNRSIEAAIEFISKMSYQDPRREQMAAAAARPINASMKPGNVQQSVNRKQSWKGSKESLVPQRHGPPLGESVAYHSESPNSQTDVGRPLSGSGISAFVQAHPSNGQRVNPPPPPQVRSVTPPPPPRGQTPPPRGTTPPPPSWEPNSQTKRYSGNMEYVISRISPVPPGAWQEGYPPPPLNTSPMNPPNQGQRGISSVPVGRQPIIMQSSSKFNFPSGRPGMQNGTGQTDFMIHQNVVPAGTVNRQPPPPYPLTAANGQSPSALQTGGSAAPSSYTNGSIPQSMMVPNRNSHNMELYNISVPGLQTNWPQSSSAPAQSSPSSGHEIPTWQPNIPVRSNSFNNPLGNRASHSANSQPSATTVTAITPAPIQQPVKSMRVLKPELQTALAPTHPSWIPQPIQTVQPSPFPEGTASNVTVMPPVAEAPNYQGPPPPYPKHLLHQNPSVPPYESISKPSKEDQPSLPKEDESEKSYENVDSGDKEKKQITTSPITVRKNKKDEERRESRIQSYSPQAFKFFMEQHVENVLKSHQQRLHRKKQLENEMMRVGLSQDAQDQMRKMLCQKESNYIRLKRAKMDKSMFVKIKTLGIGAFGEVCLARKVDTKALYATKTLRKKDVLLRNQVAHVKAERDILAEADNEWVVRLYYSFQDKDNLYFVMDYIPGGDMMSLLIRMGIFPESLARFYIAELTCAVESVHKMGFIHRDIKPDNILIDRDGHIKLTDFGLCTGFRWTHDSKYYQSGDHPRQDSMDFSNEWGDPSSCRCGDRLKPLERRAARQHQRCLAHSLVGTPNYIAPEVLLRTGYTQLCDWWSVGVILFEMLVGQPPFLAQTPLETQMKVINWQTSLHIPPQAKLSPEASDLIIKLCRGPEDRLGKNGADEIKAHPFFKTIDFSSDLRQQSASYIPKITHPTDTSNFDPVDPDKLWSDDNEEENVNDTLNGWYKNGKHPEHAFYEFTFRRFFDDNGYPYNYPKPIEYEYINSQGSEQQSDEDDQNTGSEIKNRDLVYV
In words: RBC HotSpot kinase assay (33P-ATP, P81 filter-binding), LATS1. The note with it: Table 28, biochemical kinase assay; read-out: LATS1 IC50. The procedure, abridged: (§1)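 Kinase in Hepes pH 7.5 buffer with Mg2+, EGTA, Brij35, BSA, vanadate, DTT and 1% DMSO, plus required cofactors and substrate, was preincubated 20 min at room temperature with compound. Reaction was started with 33P-ATP and run 2 h, then detected by P81 filter binding. IC50 (nM) came from 10-point singlet curves.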

The target of the next assay is T2, LATS2 (Homo sapiens, UniProt Q9NRM7).
T2 sequence (Q9NRM7 1-1088): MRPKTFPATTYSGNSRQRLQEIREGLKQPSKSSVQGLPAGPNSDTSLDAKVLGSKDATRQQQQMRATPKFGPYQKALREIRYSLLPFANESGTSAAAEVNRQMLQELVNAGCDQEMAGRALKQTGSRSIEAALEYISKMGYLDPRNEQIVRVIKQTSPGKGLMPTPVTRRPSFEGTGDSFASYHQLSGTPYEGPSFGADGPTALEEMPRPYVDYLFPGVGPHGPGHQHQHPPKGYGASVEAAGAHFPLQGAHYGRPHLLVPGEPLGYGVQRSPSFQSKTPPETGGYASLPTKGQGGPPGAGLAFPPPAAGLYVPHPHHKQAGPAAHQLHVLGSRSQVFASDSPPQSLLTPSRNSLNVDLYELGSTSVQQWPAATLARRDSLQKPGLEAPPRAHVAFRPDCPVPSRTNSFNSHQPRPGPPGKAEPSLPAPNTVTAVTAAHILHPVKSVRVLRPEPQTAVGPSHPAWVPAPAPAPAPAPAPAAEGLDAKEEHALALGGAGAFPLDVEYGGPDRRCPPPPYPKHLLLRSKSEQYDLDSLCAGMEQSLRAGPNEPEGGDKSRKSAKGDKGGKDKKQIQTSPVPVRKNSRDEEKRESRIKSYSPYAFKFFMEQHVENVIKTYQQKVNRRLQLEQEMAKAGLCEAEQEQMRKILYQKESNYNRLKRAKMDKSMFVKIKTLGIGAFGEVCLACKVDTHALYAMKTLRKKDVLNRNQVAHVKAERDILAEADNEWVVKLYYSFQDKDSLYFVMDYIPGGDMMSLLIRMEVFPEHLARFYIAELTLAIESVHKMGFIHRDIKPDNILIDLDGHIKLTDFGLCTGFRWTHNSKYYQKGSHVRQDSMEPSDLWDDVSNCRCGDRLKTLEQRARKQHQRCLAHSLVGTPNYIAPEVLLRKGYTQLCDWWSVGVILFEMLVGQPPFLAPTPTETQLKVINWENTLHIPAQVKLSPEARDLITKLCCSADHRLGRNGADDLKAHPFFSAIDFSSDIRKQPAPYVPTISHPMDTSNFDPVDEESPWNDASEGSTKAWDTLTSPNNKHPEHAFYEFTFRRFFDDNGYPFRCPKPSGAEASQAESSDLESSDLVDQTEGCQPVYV
Nature of the assay: RBC HotSpot kinase assay (33P-ATP, P81 filter-binding), LATS2. The note with it: Table 28, biochemical kinase assay; read-out: LATS2 IC50. The procedure, abridged:
as §1

A further assay has as its target AKT (Homo sapiens, UniProt P31749). In words: RBC HotSpot kinase assay (33P-ATP, P81 filter-binding), AKT. Particulars: Table 28, biochemical kinase assay; read-out: AKT IC50. The procedure, abridged: as §1

AKT, sequence (P31749 whole entry): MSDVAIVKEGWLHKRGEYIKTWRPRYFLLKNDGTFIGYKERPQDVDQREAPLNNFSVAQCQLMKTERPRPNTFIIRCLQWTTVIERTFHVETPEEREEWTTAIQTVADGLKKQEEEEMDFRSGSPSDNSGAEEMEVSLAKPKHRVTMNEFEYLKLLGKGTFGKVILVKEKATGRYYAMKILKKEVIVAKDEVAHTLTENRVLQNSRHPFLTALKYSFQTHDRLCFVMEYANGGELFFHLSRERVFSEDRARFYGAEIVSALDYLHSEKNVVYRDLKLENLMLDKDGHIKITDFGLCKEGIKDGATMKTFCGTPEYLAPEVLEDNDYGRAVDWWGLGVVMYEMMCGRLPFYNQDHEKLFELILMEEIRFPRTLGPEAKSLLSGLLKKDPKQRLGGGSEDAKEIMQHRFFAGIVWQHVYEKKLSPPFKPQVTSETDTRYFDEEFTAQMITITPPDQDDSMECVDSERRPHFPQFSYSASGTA

As for `Cc1cc(-c2ccnc3[nH]ccc23)cnc1CN` [Compound 252, (3-methyl-5-(1H-pyrrolo[2,3-b]pyridin-4-yl)pyridin-2-yl)methanamine], the figures for the pIC50 at LATS1, on LATS2 and on AKT were 8.09, 7.92 and 5.50, respectively.
`Cc1cc(-c2ccc(CN)cc2)c2cc[nH]c2n1` [Compound 256, (4-(6-methyl-1H-pyrrolo[2,3-b]pyridin-4-yl)phenyl) methanamine]: the pIC50 on LATS1 was 5.05; on LATS2, 5.37; on AKT it was less than 5.00.
As to `Cc1c[nH]c2nccc(-c3ccc(CN)cc3)c12` [Compound 257, (4-(3-methyl-1H-pyrrolo[2,3-b]pyridin-4-yl)phenyl) methanamine], the negative-log IC50 (pIC50) was 7.89 on LATS1, 7.92 at LATS2 and 6.20 on AKT.
As for `O=C1NCc2cc(-c3ccnc4[nH]ccc34)ccc21` [Compound 258, 5-(1H-pyrrolo[2,3-b]pyridin-4-yl)isoindolin-1-one], the pIC50 was 6.64 on LATS1, 7.19 at LATS2 and less than 5.00 on AKT.
The corresponding values for `O=C1NCc2ccc(-c3ccnc4[nH]ccc34)cc21` [Compound 259, 6-(1H-pyrrolo[2,3-b]pyridin-4-yl)isoindolin-1-one] are 6.96, 6.60 and less than 5.00.
Take `O=C1NCCc2cc(-c3ccnc4[nH]ccc34)ccc21` [Compound 260, 6-(1H-pyrrolo[2,3-b]pyridin-4-yl)-3,4-dihydroisoquinol in-1(2H)-one]: the pIC50 at LATS1 was 7.06; on LATS2, 7.28; on AKT, 5.18.
The like results for `NCc1ccc(-c2cc(-c3ccncc3)nc3[nH]ccc23)cc1` [Compound 261, (4-(6-(pyridin-4-yl)-1H-pyrrolo[2,3-b]pyridin-4-yl)phenyl) methanamine] were, in that order, 7.47, 8.00 and 5.05.
The corresponding values for `NCc1ccc(-c2cc(Cl)nc3[nH]ccc23)cc1` [Compound 262, (4-(6-chloro-1H-pyrrolo[2,3-b]pyridin-4-yl)phenyl) methanamine] are less than 5.00, 5.35 and less than 5.00.
The like results for `NCc1ccc(-c2ccnc3[nH]ccc23)c(F)c1` [Compound 263, (3-fluoro-4-(1H-pyrrolo[2,3-b]pyridin-4-yl)phenyl) methanamine] were, in that order, 7.47, 7.14 and 5.92.
On to `NC(=O)c1ccc(-c2ccnc3[nH]ccc23)cc1` [Compound 264, 4-(1H-pyrrolo[2,3-b]pyridin-4-yl)benzamide], for which the pIC50 at LATS1 was 6.46; on LATS2, 6.68; at AKT, less than 5.00.
The like results for `c1cc(-c2ccc3c(c2)CNC3)c2cc[nH]c2n1` [Compound 265, 4-(isoindolin-5-yl)-1H-pyrrolo[2,3-b]pyridine] were, in that order, 7.85, 7.89 and 6.29.
The corresponding values for `COc1cc(-c2ccnc3[nH]ccc23)ccc1CN` [Compound 268, (2-methoxy-4-(1H-pyrrolo[2,3-b]pyridin-4-yl)phenyl) methanamine] are 7.62, 7.62 and 6.21.
Regarding `CCOc1cc(-c2ccnc3[nH]ccc23)ccc1CN` [Compound 269, (2-ethoxy-4-(1H-pyrrolo[2,3-b]pyridin-4-yl)phenyl) methanamine], the pIC50 at LATS1 was 7.40; on LATS2, 7.44; on AKT it was 6.10.
The corresponding values for `NCc1ccc(-c2ccnc3[nH]ccc23)cc1F` [Compound 270, (2-fluoro-4-(1H-pyrrolo[2,3-b]pyridin-4-yl)phenyl) methanamine] are 7.55, 7.47 and 6.06.
The corresponding values for `NCc1ccc(-c2c(Cl)cnc3[nH]ccc23)cc1` [Compound 272, (4-(5-chloro-1H-pyrrolo[2,3-b]pyridin-4-yl)phenyl) methanamine] are 6.35, 6.57 and 5.51.
The corresponding values for `NCc1ccc(-c2c(F)cnc3[nH]ccc23)cc1` [Compound 273, (4-(5-fluoro-1H-pyrrolo[2,3-b]pyridin-4-yl)phenyl) methanamine] are 7.05, 6.83 and 5.86.
Consider `c1ccc(CNCc2ccc(-c3ccnc4[nH]ccc34)cc2)cc1` [Compound 274, N-(4-(1H-pyrrolo[2,3-b]pyridin-4-yl)benzyl)-1-phenylmethanamine], for which the pIC50 on LATS1 is 7.44; on LATS2, 7.22; on AKT it was 5.61.
The corresponding values for `c1cc(-c2ccc(CN3CCCC3)cc2)c2cc[nH]c2n1` [Compound 277, 4-(4-(pyrrolidin-1-ylmethyl)phenyl)-1H-pyrrolo[2,3-b]pyridine] are 7.20, 7.00 and 5.66.
The like results for `c1cc(-c2ccc(C3CCCN3)cc2)c2cc[nH]c2n1` (stereo not drawn) [Compound 278, 4-(4-(pyrrolidin-2-yl)phenyl)-1H-pyrrolo[2,3-b]pyridine] were, in that order, 7.77, 7.48 and 6.49.
In the case of `Fc1ccc(CNCc2ccc(-c3ccnc4[nH]ccc34)cc2)cc1` [Compound 279, N-(4-(1H-pyrrolo[2,3-b]pyridin-4-yl)benzyl)-1-(4-fluorophenyl) methanamine], the figures for the pIC50 on LATS1, on LATS2 and at AKT were 8.01, 7.53 and 5.97, respectively.
For the compound `Fc1cccc(CNCc2ccc(-c3ccnc4[nH]ccc34)cc2)c1` [Compound 280, N-(4-(1H-pyrrolo[2,3-b]pyridin-4-yl)benzyl)-1-(3-fluorophenyl) methanamine], the results for the pIC50 at LATS1, at LATS2 and on AKT were 7.97, 7.59 and 6.07, respectively.
The like results for `CC(C)(O)C#Cc1cc(-c2ccnc3[nH]ccc23)ccc1CNCc1ccc(F)cc1` [Compound 281, 4-(2-(((4-fluorobenzyl)amino)methyl)-5-(1H-pyrrolo[2,3-b]pyridin-4-yl)phenyl)-2-methylbut-3-yn-2-ol] were, in that order, 7.08, 6.77 and 5.33.
